Measured values as given in the supplement of paper PMC10307832.

Tests used:
Test in all cases: relative viability (nuclei count vs DMSO), 5 days (fraction); higher = more cells survive
[1] = compound: C[C@@]1(C(=O)Nc2ccc(F)nc2)CCCN1c1nc(Nc2cc(C3CC3)n[nH]2)c2cccn2n1 + CCNC(=O)c1noc(-c2cc(C(C)C)c(O)cc2O)c1-c1ccc(CN2CCOCC2)cc1 [Luminespib] (partner 0.01 µM)
In short: (§1)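 Cells from lung cancer lines were seeded into 1536-well plates and, one day later, dosed by pin tool. Treatments were either a single drug or a fixed dose of an anchor drug with five library-drug doses (not always all listed) in √10 steps. After 5 days, nuclei were stained in a one-step fixation (final 0.05% Triton X-100, 1% formaldehyde, 1 ug/ml Hoechst) and counted on 4× images, and relative viability is the treated-to-vehicle nuclei ratio, as the median of duplicate plates.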

[2] = compound: CC1(C)CNc2cc(NC(=O)c3cccnc3NCc3ccncc3)ccc21 [Motesanib] + Nc1ncn([C@H]2C[C@H](O)[C@@H](CO)O2)c(=O)n1 [Decitabine] (partner 2 µM)
In short: as §1

[3] = compound: CC1(C)CNc2cc(NC(=O)c3cccnc3NCc3ccncc3)ccc21 [Motesanib] + CC(C)C[C@H](NC(=O)[C@H](Cc1ccccc1)NC(=O)c1cnccn1)B(O)O [Bortezomib] (partner 0.002 µM)
In short: as §1

[4] = compound: C[C@@]1(C(=O)Nc2ccc(F)nc2)CCCN1c1nc(Nc2cc(C3CC3)n[nH]2)c2cccn2n1 + Cc1nc(Nc2ncc(C(=O)Nc3c(C)cccc3Cl)s2)cc(N2CCN(CCO)CC2)n1 [Dasatinib] (partner 0.075 µM)
In short: as §1

Cell Line: HCC-44
- relative viability ([1]; first compound 0.04 µM): 0.829
- relative viability ([1]; first compound 0.1265 µM): 0.744
- relative viability ([1]; first compound 0.4 µM): 0.623
- relative viability ([1]; first compound 1.265 µM): 0.732
- relative viability ([2]; first compound 0.01 µM): 0.972
- relative viability ([2]; first compound 0.03162 µM): 0.952
- relative viability ([2]; first compound 0.1 µM): 0.932
- relative viability ([2]; first compound 0.3162 µM): 1.07
- relative viability ([2]; first compound 1 µM): 0.932
- relative viability ([3]; first compound 0.01 µM): 0.905
- relative viability ([3]; first compound 0.03162 µM): 0.877
- relative viability ([3]; first compound 0.1 µM): 0.994
- relative viability ([3]; first compound 0.3162 µM): 0.974
- relative viability ([3]; first compound 1 µM): 0.885

Cell Line: HCC-78
- relative viability ([4]; first compound 0.04 µM): 0.421
- relative viability ([4]; first compound 0.1265 µM): 0.269
- relative viability ([4]; first compound 0.4 µM): 0.256
- relative viability ([4]; first compound 1.265 µM): 0.184
- relative viability ([2]; first compound 0.01 µM): 0.657
- relative viability ([2]; first compound 0.03162 µM): 0.654
- relative viability ([2]; first compound 0.1 µM): 0.808
- relative viability ([2]; first compound 1 µM): 0.817
- relative viability ([3]; first compound 0.01 µM): 0.44
- relative viability ([3]; first compound 0.03162 µM): 0.375
- relative viability ([3]; first compound 0.1 µM): 0.667
- relative viability ([3]; first compound 0.3162 µM): 0.549
- relative viability ([3]; first compound 1 µM): 0.385

Cell Line: HCC-366
- relative viability ([4]; first compound 0.04 µM): 0.374
- relative viability ([4]; first compound 0.1265 µM): 0.141
- relative viability ([4]; first compound 0.4 µM): 0.201
- relative viability ([4]; first compound 1.265 µM): 0.061
- relative viability ([2]; first compound 0.01 µM): 0.381
- relative viability ([2]; first compound 0.03162 µM): 0.439
- relative viability ([2]; first compound 0.1 µM): 0.416
- relative viability ([2]; first compound 0.3162 µM): 0.397
- relative viability ([2]; first compound 1 µM): 0.635
- relative viability ([3]; first compound 0.01 µM): 1.06
- relative viability ([3]; first compound 0.03162 µM): 1
- relative viability ([3]; first compound 0.1 µM): 1.06
- relative viability ([3]; first compound 0.3162 µM): 0.997
- relative viability ([3]; first compound 1 µM): 1.09

Cell Line: HCC-827
- relative viability ([4]; first compound 0.04 µM): 0.34
- relative viability ([4]; first compound 0.1265 µM): 0.395
- relative viability ([4]; first compound 0.4 µM): 0.222
- relative viability ([4]; first compound 1.265 µM): 0.339
- relative viability ([1]; first compound 0.04 µM): 0.747
- relative viability ([1]; first compound 0.1265 µM): 0.388
- relative viability ([1]; first compound 0.4 µM): 0.529
- relative viability ([1]; first compound 1.265 µM): 1
- relative viability ([2]; first compound 0.01 µM): 0.332
- relative viability ([2]; first compound 0.03162 µM): 0.421
- relative viability ([2]; first compound 0.1 µM): 0.406
- relative viability ([2]; first compound 0.3162 µM): 0.344
- relative viability ([2]; first compound 1 µM): 0.309
- relative viability ([3]; first compound 0.01 µM): 0.962
- relative viability ([3]; first compound 0.03162 µM): 1.1
- relative viability ([3]; first compound 0.1 µM): 1.07
- relative viability ([3]; first compound 0.3162 µM): 1.03
- relative viability ([3]; first compound 1 µM): 1.15

Cell Line: HOP-62
- relative viability ([4]; first compound 0.04 µM): 0.662
- relative viability ([4]; first compound 0.1265 µM): 0.565
- relative viability ([4]; first compound 0.4 µM): 0.469
- relative viability ([4]; first compound 1.265 µM): 0.374
- relative viability ([1]; first compound 0.04 µM): 0.999
- relative viability ([1]; first compound 0.1265 µM): 0.789
- relative viability ([1]; first compound 0.4 µM): 0.906
- relative viability ([1]; first compound 1.265 µM): 1.01
- relative viability ([2]; first compound 0.01 µM): 0.179
- relative viability ([2]; first compound 0.03162 µM): 0.233
- relative viability ([2]; first compound 0.1 µM): 0.573
- relative viability ([2]; first compound 0.3162 µM): 0.608
- relative viability ([2]; first compound 1 µM): 0.774
- relative viability ([3]; first compound 0.01 µM): 0.862
- relative viability ([3]; first compound 0.03162 µM): 0.791
- relative viability ([3]; first compound 0.1 µM): 0.735
- relative viability ([3]; first compound 0.3162 µM): 0.802
- relative viability ([3]; first compound 1 µM): 0.907

Cell Line: IA-LM
- relative viability ([3]; first compound 0.01 µM): 0.879
- relative viability ([3]; first compound 0.03162 µM): 0.704
- relative viability ([3]; first compound 0.1 µM): 0.816
- relative viability ([3]; first compound 0.3162 µM): 0.819
- relative viability ([3]; first compound 1 µM): 0.783

Cell Line: LK-2
- relative viability ([4]; first compound 0.04 µM): 0.217
- relative viability ([4]; first compound 0.1265 µM): 0.184
- relative viability ([4]; first compound 0.4 µM): 0.155
- relative viability ([4]; first compound 1.265 µM): 0.229
- relative viability ([1]; first compound 0.04 µM): 0.159
- relative viability ([1]; first compound 0.1265 µM): 0.204
- relative viability ([1]; first compound 0.4 µM): 0.174
- relative viability ([1]; first compound 1.265 µM): 0.169
- relative viability ([2]; first compound 0.01 µM): 0.251
- relative viability ([2]; first compound 0.03162 µM): 0.398
- relative viability ([2]; first compound 0.1 µM): 0.28
- relative viability ([2]; first compound 0.3162 µM): 0.285
- relative viability ([2]; first compound 1 µM): 0.374

Cell Line: NCI-H358
- relative viability ([4]; first compound 0.04 µM): 0.128
- relative viability ([4]; first compound 0.1265 µM): 0.123
- relative viability ([4]; first compound 0.4 µM): 0.103
- relative viability ([4]; first compound 1.265 µM): 0.124
- relative viability ([1]; first compound 0.04 µM): 0.35
- relative viability ([1]; first compound 0.1265 µM): 0.143
- relative viability ([1]; first compound 0.4 µM): 0.111
- relative viability ([1]; first compound 1.265 µM): 0.238
- relative viability ([2]; first compound 0.01 µM): 0.197
- relative viability ([2]; first compound 0.03162 µM): 0.261
- relative viability ([2]; first compound 0.1 µM): 0.257
- relative viability ([2]; first compound 0.3162 µM): 0.314
- relative viability ([2]; first compound 1 µM): 0.276

Cell Line: NCI-H522
- relative viability ([4]; first compound 0.04 µM): 0.856
- relative viability ([4]; first compound 0.1265 µM): 0.628
- relative viability ([4]; first compound 0.4 µM): 0.775
- relative viability ([4]; first compound 1.265 µM): 0.789
- relative viability ([1]; first compound 0.04 µM): 1.04
- relative viability ([1]; first compound 0.1265 µM): 1.02
- relative viability ([1]; first compound 0.4 µM): 1.04
- relative viability ([1]; first compound 1.265 µM): 0.974
- relative viability ([2]; first compound 0.01 µM): 0.615
- relative viability ([2]; first compound 0.03162 µM): 0.675
- relative viability ([2]; first compound 0.1 µM): 0.639
- relative viability ([2]; first compound 0.3162 µM): 0.725
- relative viability ([2]; first compound 1 µM): 0.691

Cell Line: NCI-H1299
- relative viability ([3]; first compound 0.01 µM): 1.02
- relative viability ([3]; first compound 0.03162 µM): 1.02
- relative viability ([3]; first compound 0.1 µM): 1.04
- relative viability ([3]; first compound 0.3162 µM): 1.01
- relative viability ([3]; first compound 1 µM): 1.05
